The record followed here is patent US20040005299A1, “Method for producing pseudo islets” (Bayer Pharmaceuticals Corporation, priority 2002, published 2004).

For experiment [1], the system named is pseudo islets (dispersed islet cells). Put plainly: cells. To be noted: for EC50: 8 mM glucose, read-out: EC50 on insulin release; for IC50: dose-dependent, read-out: IC50 of inhibition of glucose-stimulated insulin release. Type of experiment: cell-based, Sprague Dawley rats. The method, then: Pancreata from four Sprague Dawley rats were divided into small pieces approximately 1 mm^2 or smaller in size. The tissue was then rinsed three times with Hanks-Hepes buffer (127 mM NaCl, 5.4 mM KCl, 0.34 mM Na2HPO4, 4.4 mM KH2PO4, 20 mM HEPES, 1.2 mM CaCl2/5 mM glucose), and digested with collagenase (Liberase, 0.25 mg/ml, Roche Diagnostic Corp., Indianapolis, Ind.) at 37° C. in a water bath shaker for 10 minutes.
The digested pancreata tissue was rinsed three times with 50 ml of Hanks-Hepes buffer to remove the collagenase. The tissue pellet was then filtered through a 250 μm filter and the filtrate was mixed with 16 ml of 27% Ficoll (Sigma, St. Louis, Mo.) w/v in Hanks-Hepes buffer. Three layers of Ficoll (23%, 20.5%, and 11%, respectively; 8 ml of each concentration) were then loaded on top of the mixture of islet tissue in 27% Ficoll to form a gradient.
The Ficoll gradient was then centrifuged at 1,600 rpm for 10 minutes at room temperature. The pancreatic islets were concentrated at the interphase between 11% and 20.5%, and between 20.5% and 23% depending on the size of islets. The islets were collected from the two interphases and rinsed twice with Ca^++-free Hanks-Hepes buffer. The islets were then suspended in 5 ml Ca^++-free Hanks-Hepes buffer containing 1 mM EDTA and incubated for 8 minutes at room temperature.
Trypsin and DNAse I were added to the islet suspension for a final concentration of 25 μg/ml and 2 μg/ml, respectively. This suspension was incubated with shaking at 30° C. for 10 minutes. The trypsin digestion was stopped by adding 40 ml RPMI 1640 (GIBCO Life Technologies, Invitrogen, Carlsbad, Calif.) with 10% FBS. The trypsin digested islet cells were then filtered through a 63 μm nylon filter (PGC Scientific, Frederick, Md.) to remove large cell clusters.
The dispersed islet cells were then washed, counted using hemacytometer under the microscope, and seeded into “V-bottom” 96-well plates (2,500 cells per well). However, a range of 1,000 to 10,000 cells per well may used. The dispersed islet cell suspension was then centrifuged at 1,000 rpm for 5 minutes. The Hanks-Hepes buffer was removed and replaced with 200 μl RPMI 1640 medium containing 10% FBS, 1% Penicillin-Streptomycin, and 2 mM L-glutamine. Next, the 96-well plates were centrifuged at 1,000 rpm for 5 minutes to collect the dispersed islet cells concentrated at the V-bottom of the plate forming pseudo islets. These pseudo islets were then cultured overnight in a cell culture incubator at 37° C. with 5% CO2, and then used for assays.
(§1) Pseudo islets were prepared by the method described in Example 1. Following an overnight incubation, the RPMI 1640 medium was removed and replaced by 100 μl Krebs-Ringer-Hepes buffer (115 mM NaCl, 5.0 mM KCl, 24 mM NaHCO3, 2.2 mM CaCl2, 1 mM MgCl2, 20 mM HEPES, 0.25% BSA, 0.002% Phenol Red, pH 7.35-7.40). The cell suspension was then centrifuged for 5 minutes at 1,000 rpm to pellet the dispersed islet cells.
Pseudo islets in 96-well plates were incubated in a water bath at 37° C. continuously gassed with 95% O2/5% CO2 for pre-incubation for 30 minutes. The pre-incubation buffer was removed and replaced with 50 μl incubation buffer (Krebs-Ringer-Hepes buffer, pH 7.35-7.40) containing various test substrates.
The 96-well plate was centrifuged again at 1,000 rpm for 5 minutes to form pseudo islets. These pseudo islets in 96-well plates were statically incubated in a water bath at 37° C. continuously gassed with 95% O2/5% CO2 for 60 minutes. The incubation buffer (25 μl) was collected after the 60-minute incubation and used for an insulin content assay (ELISA assay, ALPCO, N.H.).

The test system of experiment [2] is pseudo islets co-cultured with fibroblasts. Put plainly: Insulin release from pseudo islets co-cultured with fibroblasts. Type of experiment: cell-based, Sprague Dawley rats. The conditions noted are these: increasing amounts of GLP-1. The procedure:
Dispersed islet cells (prepared by the method described in Example 1) were washed with regular RPMI 1640 medium with 10% FBS, counted using hemacytometer under the microscope, and seeded into “V-bottom” 96-well plates with fibroblasts (2,500 islet cells and 1,250 fibroblasts cells per well). The cell suspension was then centrifuged at 1,000 rpm for 5 minutes to collect the dispersed islet cells concentrated at the V-bottom of the plate forming pseudo islets. These pseudo islets were then co-cultured with the fibroblasts cells overnight in a cell culture incubator at 37° C. with 5% CO2, and then used for assays.
as §1
Pseudo islets in 96-well plates were incubated in a water bath at 37° C. continuously gassed with 95% O2/5% CO2 for pre-incubation for 30 minutes. The pre-incubation buffer was removed and replaced with 50 μl incubation buffer (Krebs-Ringer-Hepes buffer, pH 7.35-7.40) containing various test substrates. […]

Each structure is given as a SMILES string. Like-named read-outs stand apart in the source and are kept apart here.

With `CC(=O)OCC[N+](C)(C)C` [Ach, Acetylcholine], the concentration for a half-maximal effect (EC50) in experiment [1] (Rattus norvegicus) worked out at 10100 nM.
As for `CC[C@H](C)[C@H](NC(=O)[C@H](Cc1ccccc1)NC(=O)[C@H](CCC(=O)O)NC(=O)[C@H](CCCCN)NC(=O)[C@H](C)NC(=O)[C@H](C)NC(=O)[C@H](CCC(N)=O)NC(=O)CNC(=O)[C@H](CCC(=O)O)NC(=O)[C@H](CC(C)C)NC(=O)[C@H](Cc1ccc(O)cc1)NC(=O)[C@H](CO)NC(=O)[C@H](CO)NC(=O)[C@@H](NC(=O)[C@H](CC(=O)O)NC(=O)[C@H](CO)NC(=O)[C@@H](NC(=O)[C@H](Cc1ccccc1)NC(=O)[C@@H](NC(=O)CNC(=O)[C@H](CCC(=O)O)NC(=O)[C@H](C)NC(=O)[C@@H](N)Cc1c[nH]cn1)[C@@H](C)O)[C@@H](C)O)C(C)C)C(=O)N[C@@H](C)C(=O)N[C@@H](Cc1c[nH]c2ccccc12)C(=O)N[C@@H](CC(C)C)C(=O)N[C@H](C(=O)N[C@@H](CCCCN)C(=O)NCC(=O)N[C@@H](CCCNC(=N)N)C(N)=O)C(C)C` [GLP-1], the “GLP-1 mediated insulin secretion on co-culture with fibroblasts” value in experiment [2] is “enhanced”.
Regarding `CC(C)Cn1c(=O)n(C)c(=O)c2[nH]cnc21` [IBMX], the concentration giving a half-maximal response (EC50) in experiment [1] turned out to be 21900 nM.
Take `NC[C@H](O)c1ccc(O)c(O)c1` [NE, norepinephrine]: the half-inhibitory concentration (IC50) in experiment [1] (Rattus norvegicus) was 56.7 nM.
Regarding `C=C[C@@]1(C)CC(=O)[C@]2(O)[C@@]3(C)[C@@H](O)CCC(C)(C)[C@@H]3[C@H](O)[C@H](OC(C)=O)[C@@]2(C)O1` [forskolin], the EC50 in experiment [1] (Rattus norvegicus) was 900 nM.
Take `COc1ccc(Cl)cc1C(=O)NCCc1ccc(S(=O)(=O)NC(=O)NC2CCCCC2)cc1` [glybenclamide]: the half-maximal effective concentration (EC50) in experiment [1] (Rattus norvegicus) came to 370 nM.
Take `C[C@H](N)C(=O)NCC(=O)N[C@H]1CSSC[C@@H](C(=O)O)NC(=O)[C@H](CO)NC(=O)[C@H]([C@@H](C)O)NC(=O)[C@H](Cc2ccccc2)NC(=O)[C@H]([C@@H](C)O)NC(=O)[C@H](CCCCN)NC(=O)[C@H](Cc2c[nH]c3ccccc23)NC(=O)[C@H](Cc2ccccc2)NC(=O)[C@H](Cc2ccccc2)NC(=O)[C@H](CC(N)=O)NC(=O)[C@H](CCCCN)NC1=O` [somatostain]: the IC50 in experiment [1] is 0.9 nM.

For orientation: EC50 means the concentration at which the effect is half-maximal. The IC50 is the concentration needed to halve the response being measured.
